Measured values published in patent US20040023901A1, “Nucleoside 5'-monophosphate mimics and their prodrugs” (priority 2002, published 2004).
Where two headings read alike, the source gives them in different places.

Assays:
[1] = target: purified human type II IMPDH (Homo sapiens, UniProt P12268); experiment: Assay for inhibition of IMPDH activity (human type II); type: biochemical; settings: 50 uM IMP, 150 uM NAD, 25° C.
Method: (§1) The assays employed to measure the inhibition of inosine monophosphate dehydrogenase (IMPDH) activity are described below. The effectiveness of the compounds of the present invention as inhibitors of IMPDH enzymes was determined in the following assays. This assay was used to measure the ability of the nucleotide mimics of the present invention to inhibit the enzymatic reaction catalyzed by IMPDH enzymes. The assay is useful for measuring the activity of IMPDH from several organisms, including human, fungal, and bacterial isoforms. In the enzymatic reaction, the oxidation of inosine 5′-monophosphate (IMP) to xanthosine 5′-monophosphate (XMP) is coupled to the reduction of nicotinamide adenine dinucleotide (NAD). This reaction is monitored at 340 nm using a UV/VIS spectrophotometer or at 474 nm using a fluorometer (excitation wavelength=344 nm). This assay is a modification of a reported method (W. Wang and L. Hedstrom, “A Potent ‘Fat Base’ Nucleotide Inhibitor of IMP Dehydrogenase,” Biochemistry 1998, 37, 11949-52).
(§2) Assay Buffer Conditions: (200 uL-total/reaction)
(§3) 30 nM purified human type II IMPDH, or
(§4) 7.5 nM purified Candida albicans IMPDH
(§5) The compounds were tested at various concentrations up to 500 uM final concentration. The standard IMPDH assay is performed in a 96-well plate (Corning). An appropriate volume of assay buffer, containing the substrates IMP and NAD, was pipetted into the plate wells. Nucleoside derivatives of the present invention were added to the reactions at the desired concentrations. The reactions were initiated by the addition of enzyme. The reactions were allowed to proceed for 5 minutes at 25° C. The production of NADH was monitored at 340 nm on a microplate spectrophotometer (Molecular Devices Corp, Sunnyvale, Calif.). Initial velocity data (mA min^−1) was collected and fit to the equations below. Blank reactions were prepared in parallel with the test reactions in which enzyme was omitted from the reactions, substituted by an appropriate volume of enzyme diluent.
(§6) The percentage of inhibition was calculated according to the following equation:
(§7) % Inhibition=[1−(mA min^−1 in test reaction−mA min^−1 in blank)/(mA min^−1 in control reaction−mA min^−1 in blank)]×100.
(§8) Each inhibitor was titrated over an appropriate range of concentrations, and inhibition constants were determined using the following equations where v=initial velocity, Vm=maximal velocity, S=substrate, I=inhibitor, Km=Michaelis constant, and Ki=inhibition constant:
(§9) Michaelis-Menten Equation: […]
(§10) Competitive Inhibition Equation:
(§11) Inhibition constants (Ki) for irreversible inhibitors of IMPDH were determined using the following three equations where kobs=observed rate constant, t=time, A=absorbance at time t, A0=initial absorbance at time zero, V0=initial rate, S=substrate, I=inhibitor, k2=[…] rate constant, Km=Michaelis constant, Ki, app=apparent inhibition constant, and Ki=inhibition constant:
(§12) Irreversible Inhibition Equations 1-3:
(§13) A−A0=V0[1−exp(−kobst)] (equation 1)
(§14) Kobs=k2[I]/(Ki, app+[I]) (equation 2)

[2] = target: purified Candida albicans IMPDH (Candida albicans, UniProt O00086); experiment: Assay for inhibition of IMPDH activity (C. albicans); type: biochemical; settings: for Ki: C. albicans IMPDH, 50 uM IMP, 150 uM NAD, 25° C.; for inhibition at 100 µM: read-out: % Inhibition at 100 μM C. albicans
Chain of purified Candida albicans IMPDH (O00086 whole entry): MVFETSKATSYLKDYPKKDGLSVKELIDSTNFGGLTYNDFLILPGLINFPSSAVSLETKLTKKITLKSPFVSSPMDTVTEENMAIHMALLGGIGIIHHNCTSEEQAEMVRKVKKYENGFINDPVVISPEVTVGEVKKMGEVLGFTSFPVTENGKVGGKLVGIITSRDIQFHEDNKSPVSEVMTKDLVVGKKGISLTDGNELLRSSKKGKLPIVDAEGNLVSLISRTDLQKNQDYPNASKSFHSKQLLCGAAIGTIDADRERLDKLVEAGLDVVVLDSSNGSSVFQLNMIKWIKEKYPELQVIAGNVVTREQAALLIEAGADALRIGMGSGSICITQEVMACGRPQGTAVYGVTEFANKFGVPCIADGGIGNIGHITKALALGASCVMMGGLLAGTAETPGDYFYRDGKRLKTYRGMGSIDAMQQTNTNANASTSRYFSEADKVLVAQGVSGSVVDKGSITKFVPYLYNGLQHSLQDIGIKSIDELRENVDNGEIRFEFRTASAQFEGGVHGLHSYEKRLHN
Method: as §1, §2, §3, §4, §5, §6, §7, §8, §9, §10, §11, §12, §13, §14

in vitro = settings: bovine, 10% (v/v) fetal calf serum, pH 7.4
Method: (§15) Fetal calf serum purchased from HyClone Corporation was mixed 1:1 with each compound containing Tris-HCl buffer and MgCl2. Typically the total volume used for the experiment was 500 μl.
(§16) The final concentrations of the reaction components were as follows:
(§17) The reaction mixtures were made up and incubated at 37° C. At appropriate times aliquots of 25 μl were removed and added to 65 μl ice-cold methanol. These solutions were incubated for at least one hour at −20° C. and typically overnight. After incubation samples were centrifuged for at least 20 minutes at high speed in a microcentrifuge. The supernatant was transferred to a clean tube and the extract was dried under vacuum in a LabConco Centrivap Concentrator. The dried extracts were resuspended in dH2O and filtered to remove particulate before analysis on reverse phase HPLC.
(§18) The reverse phase HPLC columns used for the analysis were either a Phenomenex C18 Aqua column (2×100 mm) or the Phenomenex C18 Aqua column (3×150 mm) used with the appropriate guard column. The HPLC was run at 0.2 ml/min (for the 2×100 mm column) or at 0.5 ml/min (for the 3×150 mm column) with the following buffer system: 5 mM tetrabutylammonium acetate, 50 nM ammonium phosphate, and an acetonitrile gradient running from 5% up to as high as 60%. The amount of remaining parent compound at each time point was used to determine the half-life of the compound. […] Unmodified nucleoside monophosphates were used as positive controls.

[3] = Serum stability assessment in fetal calf serum; settings: 10% (v/v) fetal calf serum, 37° C., 500 μM nucleotide mimic, time points through 24 hours
Method: as §15, §16, §17, §18

[4] = bovine
Method: as §15, §16, §17, §18

| Compound | Ki [1] [µM] | Ki [2] [µM] | also measured |
| --- | --- | --- | --- |
| NC(=O)c1ncn([C@@H]2O[C@H](CC(F)(F)P(=O)(O)O)[C@H](O)C2O)n1 (stereo partly drawn) [Compound 48] | 27.1 | 20.4 | half-life at 500 μM (in vitro): > 24 h |
| NC(=O)c1ncn([C@@H]2O[C@H](CC(F)(F)P(=O)(O)O)[C@H](O)C2O)c1O (stereo partly drawn) [Compound 50, 4-Carbamoyl-1-[5,6-dideoxy-6-(dihydroxyphosphinyl)-6,6-difluoro-β-D-allofuranosyl]-1,3-imidazolium-5-olate] | 2.04 |  | inhibition at 100 µM [2]: 71.5% |
| NC(=O)c1ncn([C@@H]2O[C@H](C[PH](=O)O)[C@H](O)C2O)n1 (stereo partly drawn) [Compound 40, 1-[5-Deoxy-5-(hydroxyl-H-phosphinyl)-β-D-ribofuranosyl]-11,24-triazole-3-carboxamide] |  |  | half-life at 500 μM (in vitro): > 24 h |
| NC(=O)c1ncn([C@@H]2O[C@H](COP(=O)(O)S)[C@H](O)C2O)n1 (stereo partly drawn) [Compound 1, 1-β-D-ribofuranosyl-1,2,4-triazole-3-carboxamide 5′-phosphothioate] | 0.94 | 1.34 | half-life at 500 μM (in vitro): 18 h |
| C#Cc1c(C(N)=O)ncn1[C@@H]1O[C@H](COP(=O)(O)S)[C@H](O)C1O (stereo partly drawn) [Compound 2, 5-Ethynyl-1-(1-D-ribofuranosyl)imidazole-4-carboxamide 5′-phosphorothioate] | 34.2 |  | inhibition at 100 µM [2]: 82% |
| NC(=O)c1ncn([C@@H]2O[C@H](COCP(=O)(O)O)[C@@H](O)[C@H]2O)n1 [Compound 19, 1-[5-O-(Dihydroxyphosphinyl)methyl-β-D-ribofuranosyl]-1,2,4-triazole-3-carboxamide] | 85 |  |  |
| C#Cc1c(C(N)=O)ncn1[C@@H]1O[C@H](COP(=O)(O)O)[C@@H](O)[C@H]1O [EICAR 5′-monophosphate] |  |  | Serum t1/2 [3]: 3 h |
| NC(=O)c1ncn([C@@H]2O[C@H](CO[PH](O)=S)[C@H](O)C2O)n1 (stereo partly drawn) [Compound 53, 1-[5-O-(H-Thiophosphonyl)-β-D-ribofuranosyl]-1,2,4-triazole-3-carboxamide] | 34.7 | 10.7 |  |
| NC(=O)c1ncn([C@@H]2O[C@H](COP(=O)(O)O)[C@@H](O)[C@H]2O)n1 [Ribavirin 5′-monophosphate] |  |  | Serum t1/2 [3]: 6 h |
| NC(=O)c1ncn([C@@H]2O[C@H](CP(=O)(O)O)[C@@H](O)[C@H]2O)n1 [Compound 39, 1-[5-Deoxy-5-(dihydroxyphosphinyl)-β-D-ribofuranosyl]-1,2,4-triazole-3-carboxamide] | 1.82 | 1.48 |  |
| NC(=O)c1ncn([C@@H]2O[C@H](CP(=O)(O)O)[C@H](O)C2O)c1O (stereo partly drawn) [Compound 44, 4-Carbamoyl-1-[5-deoxy-5-(dihydroxyphosphinyl)-β-D-ribofuranosyl]-1,3-imidazolium-5-olate] | 7.92 |  | inhibition at 100 µM [2]: 98.1% |
| 5-Ethynyl-1-(5-methylphopsphonyl-β-D-ribofuranosyl)imidazole-4-carboxamide [Compound 10] |  |  | Serum t1/2 [4]: >8 h |
